Assay results: patent US20090054491A1, “Use” (AstraZeneca AB, priority 2005, published 2009)

System: Female C57Bl6 mice
Assay: Pharmacodynamic effect in mouse (intake of bland and palatable paste after fasting, body weight change)
Type: in vivo
Protocol: Female C57Bl6 mice (19-21 g) are singly housed for 7-days with ad libitum access to a “bland-paste” made from normal laboratory chow (R-3 Lactanin, Vadstena, Sweden) or to a “palatable-paste” of similar consistency containing oatmeal, butter, sugar, cocoa powder, cocoa butter and peanut butter. The day before the experimental day, food is removed for 12 hours. O the experiment day, animals are weighed and compound or vehicle is administered. Animals are returned to their home cages and given access to weighed amounts of both bland and palatable pastes. This food is then re-weighed 2, and optionally 4 and 6 hours later, and consumption of each food type calculated by the difference from initial food weight. Animals are further weighed at 24 hours after administration, and change in body weight over the treatment period is calculated.

## COCc1cc(C#N)cc(-c2nc(-c3ccc(F)cn3)no2)c1 [3-[3-(5-fluoropyridin-2-yl)-1,2,4-oxadiazol-5-yl]-5-(methoxymethyl)benzonitrile]
Compared to vehicle treated animals, FIG. 2
  body weight recovery after fasting: slower body weight recovery
Measured 2 hours after treatment, bland paste, fasted mice, FIG. 1
  effect on normal laboratory chow (intake): no effect
Measured 2 hours after treatment, palatable paste, fasted mice, FIG. 1
  intake of sweets: decreased intake of sweets measured 2 hours after treatment in a dose-related manner
